Data set [1] relates to intracellular M. tuberculosis H37Rv. Briefly: Intracellular activity assay in infected macrophages. The format is cell-based, Mycobacterium tuberculosis. As to conditions: three-day incubation, infected J744 macrophages, untreated 6.47±0.04.
Details of data set [2]: method as in PMID 26579477. As to conditions: oral administration of 200 mg/kg; cited from earlier work.
For data set [3] the following is noted: cited from earlier work.

Here are results for two compounds from PMC7029871, “Development and validation of a sensitive LC-MS/MS method for the quantitation of IMB-YH-4py5-2H, an antituberculosis candidate, and its application to the pharmacokinetic study” (PLoS ONE, 2020).

On to `NNC(=O)c1ccncc1` [Isoniazid, reference compound], for which the Log10CFU in data set [1] (0.5 μg/mL) was 4.60±0.05 Log10CFU; in data set [1] (1 μg/mL), 3.57±0.06 Log10CFU; in data set [1] (2 μg/mL), 4.01±0.14 Log10CFU.

Regarding `COC(=O)/C=C/C(=O)c1ccc(OC)cc1` [YH-8, (E)-Methyl-4-aryl-4-oxabut-2-enoate, reference compound], in data set [2], the “serum Cmax” value is on record as “lower than 0.5 μg/mL” and the “time until serum level decreased below the therapeutic range” value is reported as “less than 1 hour”. Further, in data set [3], the solubility result was “poor solubility”.
